Measured values: the supplement of paper PMC11451515

How the values were obtained:
Settings in all cases: 48 h
[1] = test system: SEM cells; test: cell viability relative to DMSO control; higher = less cytotoxic
Method in brief: (§1)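 Before seeding, each leukemia line was adapted for at least four passages in each medium. NOMO1 or SEM cells (500 cells/well) and P12-Ichikawa cells (1000 cells/well) went into 1536-well plates at 5 μl, then received library compounds in DMSO by pin dosing across 11 threefold concentrations, 47 μM to 0.79 nM. Readout was CellTiter-Glo One luminescence after 48 h at 37°C, and viability is given as a per-plate percentage of DMSO wells, with cell-free wells as background.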

[2] = test system: NOMO1; test: as above
Method in brief: as §1

[3] = test system: P12-Ichikawa; test: as above
Method in brief: as §1

[4] = test system: SEM cells; test: AUC of viability dose-response curve (% viability x log10 dose units); higher = less sensitive
Method in brief: (§2)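 Over 48 h at 37°C, leukemia cells in 1536-well plates (500 or 1000 cells/well), adapted to each medium, received library compounds in DMSO at 11 threefold doses from 47 μM to 0.79 nM. CellTiter-Glo One luminescence, normalised per plate to DMSO and cell-free wells, was fitted by a four-parameter log-logistic function of log10 dose. The area under the curve was then integrated by trapezoidal rule, after scaling curves above full viability and removing those that failed quality control.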

[5] = test system: NOMO1; test: as above
Method in brief: as §2

[6] = test system: P12-Ichikawa; test: as above
Method in brief: as §2

CN(C)CCCC1(c2ccc(F)cc2)OCc2cc(C#N)ccc21 (stereo not drawn)
cell viability [%]
Settings | [1] | [2] | [3]
HPLM + 10% dialyzed FBS, 0.000781 µM | 94.8 | 107 | 98.8
HPLM + 10% dialyzed FBS, 0.00234 µM | 101 | 103 | 96.8
HPLM + 10% dialyzed FBS, 0.00702 µM | 103 | 111 | 95.5
HPLM + 10% dialyzed FBS, 0.0211 µM | 106 | 90.7 | 90.1
HPLM + 10% dialyzed FBS, 0.0632 µM | 100 | 100 | 95.1
HPLM + 10% dialyzed FBS, 0.19 µM | 94.5 | 94 | 94.8
HPLM + 10% dialyzed FBS, 0.569 µM | 91.7 | 91.8 | 91.8
HPLM + 10% dialyzed FBS, 1.71 µM | 96.7 | 106 | 99.9
HPLM + 10% dialyzed FBS, 5.12 µM | 83.6 | 68.4 | 69.7
HPLM + 10% dialyzed FBS, 15.4 µM | 86.9 | 88.8 | 87.7
HPLM + 10% dialyzed FBS, 46.1 µM | 73.6 | 74 | 74.7
RPMI 5 mM glucose + 10% FBS, 0.000781 µM | 91.5 | 88.5 | 91
RPMI 5 mM glucose + 10% FBS, 0.00234 µM | 99.4 | 101 | 83.8
RPMI 5 mM glucose + 10% FBS, 0.00702 µM | 89.4 | 102 | 88.2
RPMI 5 mM glucose + 10% FBS, 0.0211 µM | 99.1 | 88.9 | 91.1
RPMI 5 mM glucose + 10% FBS, 0.0632 µM | 86.5 | 98.5 | 96.4
RPMI 5 mM glucose + 10% FBS, 0.19 µM | 96.6 | 89.5 | 89.7
RPMI 5 mM glucose + 10% FBS, 0.569 µM | 82.4 | 91.4 | 87.1
RPMI 5 mM glucose + 10% FBS, 1.71 µM | 93.1 | 106 | 85.8
RPMI 5 mM glucose + 10% FBS, 5.12 µM | 74.2 | 57.9 | 83.2
RPMI 5 mM glucose + 10% FBS, 15.4 µM | 90.2 | 79.9 | 82.5
RPMI 5 mM glucose + 10% FBS, 46.1 µM | 78.1 | 84.4 | 74.3
RPMI 5 mM glucose + 10% dialyzed FBS, 0.000781 µM | 109 | 87.5 | 90.6
RPMI 5 mM glucose + 10% dialyzed FBS, 0.00234 µM | 109 | 90 | 97.3
RPMI 5 mM glucose + 10% dialyzed FBS, 0.00702 µM | 106 | 96.4 | 91.1
RPMI 5 mM glucose + 10% dialyzed FBS, 0.0211 µM | 108 | 85 | 92.7
RPMI 5 mM glucose + 10% dialyzed FBS, 0.0632 µM | 113 | 90.4 | 94.4
RPMI 5 mM glucose + 10% dialyzed FBS, 0.19 µM | 120 | 84.5 | 92.3
RPMI 5 mM glucose + 10% dialyzed FBS, 0.569 µM | 84.1 | 77.4 | 89.3
RPMI 5 mM glucose + 10% dialyzed FBS, 1.71 µM | 105 | 82.2 | 91.9
RPMI 5 mM glucose + 10% dialyzed FBS, 5.12 µM | 70.7 | 55.3 | 78.5
RPMI 5 mM glucose + 10% dialyzed FBS, 15.4 µM | 92.2 | 81 | 80.2
RPMI 5 mM glucose + 10% dialyzed FBS, 46.1 µM | 76 | 72.6 | 78.4

AUC of viability dose-response curve
Settings | [4] | [5] | [6]
HPLM + 10% dialyzed FBS | 447 | 425 | 433
RPMI 5 mM glucose + 10% FBS | 426 | 431 | 415
RPMI 5 mM glucose + 10% dialyzed FBS | 432 | 392 | 425
